Data from patent US11980602B2, “Cannabinoid prodrug compounds” (Firstlight Pharmaceuticals LLC, priority 2019, dated 2024).

How the values were obtained:
[1] = low, dose dependent; cited from earlier work
[2] = system: HPAF-II (pancreatic) tumor cells; experiment: MTT cell viability assay with HPAF-II pancreatic tumor cells; format: cell-based, human
Method: MTT Cell Viability Assay with HPAF-II (Pancreatic) Tumor Cells—
10 mM of COMPOUND A stock solution was made by dissolving the 8.2 mg of powder form of COMPOUND A in 1.468 mL of DMSO to form the stock solution. The stock solution was aliquoted to 0.6 mL microcentrifuge tubes with 20 μl of solution in each microcentrifuge tube.
Pancreatic cancer cell line HPAF-II was seeded in a 96-well plate with 5000 cells/well and incubated overnight at 37° C. The next day, cells were treated triplicate by removing cell media and replaced with fresh media containing COMPOUND A alone at increasing concentrations (10 μM, 20 μM, 20 μM, 50 μM, 75 μM, 100 μM 125 μM 150 μM, 175 μM 200 μM) as well as the combination of the 10 μM of COMPOUND A and Gemcitabine at increasing concentrations (0 μM, 0.01 μM, 0.05 μM, 0.1 μM, 0.5 μM, 1 μM, 5 μM, 10 μM). Drug vehicle (DMSO, Sigma) was used as a control for the treatment. Cells were then left to grow in the presence of the drugs for the following 72 hours.
After 72 hours, the media was discarded and the cells were incubated with MTT (3-(4,5-Dimethylthiazol-2-yl)-2,5-diphenyltetrazolim bromide) solution (5 mg/ml stock) at working concentration of 0.5 mg/ml in fresh cell growth media for 2 hours at 37° C. The reaction was stopped when the majority of the cells was stained. MTT solution was then aspirated and the plate was left to dry for several hour. Stained cells were then resuspended in 70 μl of DMSO and mixed well. The absorbance was read with the use of a plate reading spectrophotometer at the 570 nm. The CompuSyn data for the drug combination of COMPOUND A and Gemcitabine in each cell line was generated and analysed using the CompuSyn software which was set up by […] and published by ComboSyn, Inc.

[3] = system: phospho-ERK; experiment: Western blot of ERK phosphorylation in HPAF-11 pancreatic tumor cells; format: cell-based, human; conditions: HPAF-11 cells, 48 hours, DMEM 10% FBS, western blot (FIG. 3)
Method: Cells were treated for 48 hours with indicated concentrations of COMPOUND A in DMEM containing 10% FBS. Phosphorylation of ERK was assessed by western blot using antibodies that detect total and phospho-ERK. Actin detection was used as a loading control for total lysate protein.

[4] = system: MKN1 (gastric) tumor cells; experiment: CELLTITER-GLO cell viability assay, MKN1; format: cell-based, human
Method: (§1) CELLTITER-GLO® Cell Viability Assay (a homogeneous method of determining the number of viable cells in culture based on quantitation of the ATP present, an indicator of metabolically active cells)
(§2) MKN1 (gastric), PC3 (prostate), NCIH727 (lung), and HCT116 (colorectal) tumor cell lines; Control=0.1% DMSO
(§3) To prepare 10 mM FL41 stock from powder dissolve 4.1 mg of FL41 powder into 0.74 ml DMSO-aliquot and store at −20 C until use DMSO-stock from Sigma or other suitable vendor-must be reagent or ACS grade or better.
(§4) Place 5000 cells per well (200 ul) in duplicate in their preferred media as shown in 96-well plate diagram immediately below. Reduce the final FBS (serum) concentration to 5% before adding cells to media. Incubate cells overnight and then remove old media carefully and add fresh media with 5% FBS and then either add DMSO alone, COMPOUND A alone or in combination with GEM (gemcitabine) in wells where noted at the final concentrations noted. Incubate the cells at 37 C in CO2 incubator for an additional 72 hours in presence of compounds. At the end of the 72-hour period add Promega Titerglo reagent to the wells and then measure luminescence to assess relative cell number.

[5] = system: PC3 (prostate) tumor cells; experiment: CELLTITER-GLO cell viability assay, PC3; format: cell-based, human; conditions: COMPOUND A alone, 72 hours, 5% FBS
Method: as §1, §2, §3, §4

[6] = system: HCT116 (colorectal) tumor cells; experiment: CELLTITER-GLO cell viability assay, HCT116; format: cell-based, human; conditions: COMPOUND A alone, 72 hours, 5% FBS (FIG. 6)
Method: as §1, §2, §3, §4

[7] = system: NCIH727 (lung) tumor cells; experiment: CELLTITER-GLO cell viability assay, H727; format: cell-based, human
Method: as §1, §2, §3, §4

C=C(C)[C@@H]1CCC(C)=C[C@H]1c1c(O)cc(CCCCC)cc1O [CBD, Cannabidiol]
oral and oromucosal bioavailability [1]: about 35%

C=C(C)[C@@H]1CCC(C)=C[C@H]1c1c(O)cc(CCCCC)cc1OC(=O)N[C@@H](C)C(=O)N[C@@H](CCC(=O)O)C(=O)O [COMPOUND A]
growth of HPAFII (pancreatic) tumor cell line as compared to control ([2]; COMPOUND A alone): inhibit the growth | increase in rate of the cell kill vs Compound A or gemcitabine alone ([2]; HPAF-II, 10 μM COMPOUND A combined with gemcitabine, 72 hours (FIG. 2)): at least 10% | kill of the pancreatic tumor cells ([2]; HPAF-II, 50 μM, 72 hours, MTT (FIG. 1)): ≥ 50% | kill of the tumor cells ([2]; HPAF-II, about 175 μM, 72 hours, MTT (FIG. 1)): more than 80% | phospho-ERK levels in tumor cells as compared to control [3]: effectively decrease phospho-ERK levels | growth of MKN1 (gastric) tumor cell line as compared to control ([4]; COMPOUND A alone, 72 hours, 5% FBS (FIG. 4)): inhibit the growth | effect on gemcitabine growth inhibition of human mkn1 gastric tumor cells ([4]; combination with gemcitabine, 72 hours (FIG. 5)): synergistic impact | growth of PC3 (prostate) tumor cell line as compared to control [5]: inhibit the growth | growth of HCT116 (colorectal) tumor cell line as compared to control [6]: inhibit the growth | growth of H727 (lung) tumor cell line as compared to control ([7]; COMPOUND A alone, 72 hours, 5% FBS (FIG. 7)): inhibit the growth | effect on gemcitabine growth inhibition of human h727 lung tumor cells ([7]; combination with gemcitabine, 72 hours (FIG. 8)): potentiates
